According to patent US20040034201A1, “Enhanced affinity hyaluronan binding peptides” (priority 1997, published 2004):
Like-named read-outs stand apart in the source and are kept apart here. One block for each compound: values may come before it.

Legend:
[1] = system: Ras-transformed 10T1/2 fibroblasts; test: Apoptosis (Hoechst dye positive nuclei); format: cell-based; conditions: 100 ug/mL peptide or PD98059 50 ug/mL; 48 h
Protocol: Ras-transformed 10T1/2 fibroblasts were grown to sub-confluence and were incubated with enhanced affinity hyaluronan binding peptide (shown in SEQ.ID.NO.:3) at a concentration of 100 ug/mL for 48 h. The cells were then stained with Hoechst dye using standard procedures and the percentage of apoptotic cells were determined by detection of positive stain in the nucleus of randomly selected cells.

10T1/2 fibroblasts = test: Cell proliferation in response to serum (hemocytometer counts); format: cell-based; conditions: 100 ug/mL peptide or PD98059 50 ug/mL, 48 h
Protocol: 10T1/2 fibroblasts were grown to semi-confluence and were incubated with enhanced affinity hyaluronan binding peptide (shown in SEQ.ID.NO.:3) at a concentration of 100 ug/mL for 48 h. The cells were then trypsinized in 0.12% trypsin and counted using a hematocytometer. Released cells were stained with trypan blue and only viable cells were counted.

[2] = HA binding of biotinylated peptides on HA-derivatized ELISA plates
Protocol: A 15-mer phage display library was obtained from Chiron Inc. (CA). Hyaluronan (HA) was biotinylated and mixed with streptavidin-sepharose (Sigma) and washed. The Biotinylated HA was incubated with the phage library, then recovered with streptavidin-sepharose. The phage biotinylated HA-streptavidin -sepharose mixture was washed 4 times with phosphate buffered saline (PBS) and recovered phage were plated on a bacteria lawn in petri dishes. Clones were isolated and assessed for their ability to bind to HA. For the first screen, a total 75 clones were obtained after 4 cycles of screening. To assess the specificity of binding of these clones to HA, two approaches were taken. In the first, the ability of the clones to bind to biotin-sepharose or to streptavidin-sepharose were assessed. Clones were recovered from the bacteria lawn and mixed with biotin-sepharose and streptavidin-sepharose. Sepharose beads were washed 4 times with PBS and plated onto a bacteria lawn. In the second assay, clones were mixed with excess (100 ug/mL) HA (mean molecular weight: 700,000 daltons (Hyal, Ontario, Canada) together with biotinylated HA. After mixing the biotinylated HA was recovered with streptavidin-sepharose, washed as above and plated onto a bacteria lawn. Clones were sequenced in an automatic sequencer. A schematic diagram illustrating the isolation of enhanced affinity hyaluronan binding peptides from the 15-mer phage display library is shown in FIG. 1.
Enhanced affinity HA binding peptides mimicking sequences obtained from the phage display library and scrambled peptides prepared from these sequences were tested for their HA binding properties. HA was derivatized to NUNC ELISA plates and biotinylated peptides were added to the plates and incubated for 2 h at room temperature. Plates were washed 4 times with PBS and then incubated with streptavidin-peroxidase for 1 h, washed, developed with hydrogen peroxide and their optical densities were determined. Controls were conducted using BSA-coated ELISA wells.

S1 macrophage cell line = test: Chemotaxis in Boyden chamber, S1 macrophage cell line to C5a; format: cell-based; conditions: MTT blue, n = 3 replicates, the values are: MTT absorbance (chemotaxis)
Description: (§1) To assess the effects of enhanced affinity hyaluronan binding peptides and scrambled peptides on chemotaxis, a modified multi-well boyden chamber was utilized as described by Shi, Y. et al. (J. Immunol. Methods 164: 149-154, 1993).

Human neutrophils = test: Chemotaxis in Boyden chamber, human neutrophils to IL-8; format: cell-based; conditions: MTT blue, n = 3 replicates, the values are: MTT absorbance (chemotaxis)
Protocol: (§2) Ras-transformed 10T1/2 or parental 10T1/2 fibroblasts (Egan, S. E. et al., Science 238: 202-205, 1987; Hardwick, C. et al., J. Biol. Chem. 117: 1343-1350, 1992) were cultured in DMEM containing 10% fetal bovine serum (FBS) and maintained in 5% CO2 humidified atmospheric condition. Every second passage, cells were maintained in 600 ug/mL G418 for one passage to select for maintenance of the mutant active ras-geneticin construct in cells. Cells were passaged at confluence and utilized under 20 passages. Macrophages were obtained from lung lavage 1 h after bleomycin insertion (Gelzleichter, T. R. et al., Fund. Appl. Toxicol. 30: 39-46, 1996) and used immediately in assays. Neutrophils were obtained from human blood as described and used immediately.
as §1

Alveolar macrophages = test: Random locomotion by image analysis, alveolar macrophages; format: cell-based; conditions: nuclear displacement by image analysis, n = 100 cells
Protocol: as §2
(§3) For routine analysis of random locomotion, 10T1/2 fibroblasts or leukocytes were subcultured into culture flasks coated with 20 ug/mL fibronectin and maintained in DMEM plus 10% FBS for 24-48 h. The enhanced affinity hyaluronan binding peptide (shown in SEQ.ID.NO.:3) or scrambled peptides were incubated with the cultures at concentrations of 50 ng to 1 ug per mL. […] Filming was conducted for up to 24 h with images recorded every 20 min.

[3] = system: Fibroblast (ras transformed); test: Random locomotion by image analysis, ras-transformed 10T1/2 fibroblasts on fibronectin; format: cell-based
Protocol: as §2, §3

Rat alveolar macrophages = test: Chemotaxis in Boyden chamber, rat alveolar macrophages to C5a; format: cell-based; conditions: MTT blue, n = 3 replicates, the values are: MTT absorbance (chemotaxis)
Protocol: as §2, §1

punch biopsy wound = test: Rat punch biopsy model of skin repair; format: in vivo
Protocol: Three-month-old female Fischer rats were anesthesized and subjected to […] full thickness punch biopsies. Wounds were filled with a sterile solution of 1% collagen type 1 gel containing either PBS alone, HA binding peptide (shown in SEQ.ID.NO.:3) (20 mg/mL) or scrambled peptide (20 mg/mL) that contained the same amino acids as the HA binding peptide but in a random order. 100 uL of the collagen solution was applied to the punch biopsy wound and allowed to gel over 20 min. The wounds were then covered with a protective plastic shield that was sewn into the skin. Wounds were recovered from euthenized rats with a 9 mm punch biopsy.
Recovered punch biopsies were extracted with RIPA buffer and total protein was determined with a Biorad protein assay. Protein (50 ug) was loaded onto each lane and proteins were separated by electrophoresis on SDS-PAGE. Separated proteins were transferred to a nitrocellulose blot and the blot was processed for reactivity to anti-RHAMM antisera or anti-CD44 antibody (Dillon, P. W. et al., J. Surg. Res. 57: 170-173, 1994).
Messenger RNA was isolated by Micro-FastTrack Kit (Invitrogen, San Diego, Calif.). The quality of RNA samples was confirmed by denaturing gel electrophoresis. Reverse transcription was performed by using First Strand cDNA Synthesis kit (Clontech, Polo Alco, Calif.). Briefly, 0.2 ug of mRNA was used to generate cDNA using oligo(dT) 18 primer. Samples containing 0.2 ug of mRNA per time point was heat-denatured in DEPC-treated water for 2 min at 70° C. and incubated at 42° C. for 1 h in a total volume of 20 uL of 20 pmol primers, 0.5 mM of each dNTP, 1 unit/uL of RNase inhibitor and 200 units/ug RNA of MMLV. The reaction was stopped by heating at 94° C. for 5 min and to destroy any DNase activity. The reaction mixture was diluted to a final volume of 100 uL and aliquots were stored at −80° C. until further use.
To distinguish between amplication of genomic DNA and complementary DNA, the primer pairs were designed to enclose at least one intron on the genomic sequences of RHAMM and beta-actin. […]

[4] = peptide of WO 93/21312 with carboxy-terminal histidine; cited from earlier work

Compound: COc1cccc(-c2cc(=O)c3ccccc3o2)c1N [PD98059, reference compound]
% Hoechst Positive Nuclei [1]: 40 ± 2.5% | Number of Cells (×10^6) (10T1/2 fibroblasts): 0.5 ± 0.1 ×10^6

Compound: STMMSRSHKTRSCHH
ability to bind HA [2]: can bind to HA

Compound: STMMSRSHKTRSHH
% Hoechst Positive Nuclei [1]: 4.9 ± 0.9% | Number of Cells (×10^6) (10T1/2 fibroblasts): 2.4 ± 0.2 ×10^6 | Rate of Locomotion, chemotaxis (S1 macrophage cell line): 0.238 ± 0.014 | Rate of Locomotion, chemotaxis (Human neutrophils): 0.088 ± 0.009 | Rate of Locomotion, random locomotion (Alveolar macrophages): 3.24 ± 0.53 um/h | Concentrations optimal for inhibiting cell motility ([3]; 10T1/2 fibroblasts or leukocytes, tested 50 ng to 1 ug per mL): 50 to 100 ng/mL | Rate of Locomotion, random locomotion ([3]; Fibroblast (ras transformed), nuclear displacement by image analysis, n = 100 cells): 10.83 ± 1.07 um/h | ability to bind HA [2]: can bind to HA | Rate of Locomotion, chemotaxis (Rat alveolar macrophages): 0.425 ± 0.028 | HA accumulation within the remodelling dermal layer (punch biopsy wound; at 24 h, biotinylated aggrecan staining): increase in HA accumulation | keratinocyte resurfacing of the wound (re-epithelialization) (punch biopsy wound; rat, applied in collagen gel to the wound, 24 h after injury): inhibited keratinocyte resurfacing of the wound | number of fibroblasts at the wound site (punch biopsy wound; rat, peptide 20 mg/mL in collagen gel): reduced the number of fibroblasts

Compound: KLRSQLVHHH
ability to bind HA [4]: unable to bind to HA

The remaining lines, values ahead:

ability to bind HA [2]: Enhanced affinity binding
Compound: STMMSRSHKTRSHHV [peptide of the Formula III with a valine residue at the C-terminal]

ability to bind HA [2]: Enhanced affinity binding
Compound: TMTRPHFHKRQLVLS
